The test system of test [1] is MOG35-55 EAE. The experiment in a line: Active MOG35-55 EAE, clinical scores. In kind it is in vivo, mouse. As to conditions: prophylactic, 5 mg/kg i.p. daily from day 0, FIG. 14B.
The subject of test [2] is renal reperfusion injury. As to conditions: cited from earlier work.
Test [3] has as its system intracellular GSH. Type of test: cell-based, mouse. As to the method: Real-time imaging of glutathione. The real-time GSH dynamics in living BMDMs was determined with the fluorescent GSH probe, RealThiol RT-AM as described (37). Cells were plated on 2-well chamber slide (Nunc) pre-coated with 25 μg/ml fibrin. Cells were stimulated with fibrin with or without 5 μM acivicin or GGsTop. The GSH synthesis inhibitor, buthionine sulfoximine (BSO, Sigma-Aldrich) was used as positive control for reducing intracellular GSH levels at 100 μM. After 24 h incubation, cells were loaded with 1 μM RT-AM probe and were incubated for 5 min before imaging. The cells were kept at 37° C. during the entire experiment. […] For each independent experiment, laser power and detector settings were set using the control/untreated cells incubated with RT-AM alone as reference. All settings were kept constant throughout the experiment. […] The ratio calculated for each treatment was expressed as percentage from that of the untreated cells (control).

Test [4] relates to mouse BMDMs. The experiment in a line: ROS production (DHE) in fibrin-stimulated mouse BMDMs. In kind it is cell-based. As to conditions: fibrin 24 h, 5 μM inhibitor, FIG. 6b. As to the method:
Bone marrow—derived macrophage cultures. […]. In brief, bone-marrow cells were isolated from tibia and femur of C57BL/6 mice, Ggt1^+/+ mice or Ggt1^dwg/dwg mice and cultured in RPMI-1640 medium supplemented with 10% FBS, 1% penicillin-streptomycin (Corning), and 10 ng/ml murine M-CSF (14-8983-80, Thermo Fisher Scientific). On days 6-7, adherent BMDMs were harvested by adding PBS with 5 mM EDTA to the plates and used for assays.
Human macrophage cultures. Human peripheral blood mononuclear cells (PBMCs) were purchased from AllCells, LLC (Alameda, Calif.). To differentiate PBMC into monocyte-derived macrophages, 2×10^6 PBMC/mL were plated in RPMI-1640 media supplemented with 10% FBS, 1% penicillin-streptomycin (Corning), and 50 ng/ml human M-CSF (300-25, Peprotech) in tissue-culture treated dishes (Corning). After 24 h, non-adherent cells were removed, and adherent cells were cultivated for 7-8 additional days at 37° C. in 5% CO2 to promote their full differentiation into macrophages. Oxidant detection with DHE. Intracellular concentrations of ROS were measured using dihydroethidium (DHE) as described (9). […] The DHE fluorescence was detected at an excitation/emission wavelength of 518 nm/605 nm using a SpectraMax M5 microplate reader (Molecular Devices) with SoftMax Pro 5.2 software (Phoenix Technologies Ltd.).

Test [5] addresses T1, GGT (Mus musculus, UniProt Q60928).
T1 construct: GGT activity in BMDMs left unstimulated or stimulated with fibrin after acivicin or vehicle control treatment; endogenous in cells; host or cells: mouse bone marrow-derived macrophages (BMDMs), fibrin-stimulated
Description: GGT activity assay in fibrin-stimulated BMDMs (enzymatic kit, ProteoGREEN-gGlu probe). Type of test: cell-based. As to conditions: FIG. 6c, FIG. 13A, B. How it is done:
GGT activity assay. GGT activity was measured using the MaxDiscovery gamma-Glutamyl Transferase (GGT) Enzymatic Assay Kit (Bioo Scientific) according to the manufacturer's protocol. […]. For in vivo GGT activity assay, spinal cord tissues from the onset of MOG35-55 EAE or LPS-injected substantia nigra area at 12 h were prepared. Tissues were homogenized in 0.1 M Tris-HCl and centrifuged at 13,000 g for 30 min at 4° C. The supernatant was collected and subsequently assessed for GGT activity. The absorbance at 405 nm was detected with a SpectraMax M5 microplate reader (Molecular Devices) with SoftMax Pro 5.2 software (Phoenix Technologies Ltd.). The GGT activity in IU/1 was calculated following the manufacturer's protocol by multiplying the average increase in absorbance at 405 nm over 10 min GGT activity was also measured using a fluorescent probe, ProteoGREEN-gGlu (Goryo Chemical, Hokkaido, Japan), according to the manufacturer's protocol. Cultured BMDMs were plated on 96-well, black μ-clear-bottom microtiter plates (Greiner Bio-One) pre-coated with 25 μg/ml fibrin. […] The fluorescence intensity (excitation/emission filter pairs of 488 nm/520 nm) was measured using a SpectraMax M5 microplate reader (Molecular Devices) with SoftMax Pro 5.2 software (Phoenix Technologies).

The test system of test [6] is human macrophages. Description: ROS production (DHE) in fibrin-stimulated human macrophages. Type of test: cell-based. The note with it: fibrin 24 h, 5 μM inhibitor, FIG. 6b. How it is done:
Human macrophage cultures. Human peripheral blood mononuclear cells (PBMCs) were purchased from AllCells, LLC (Alameda, Calif.). To differentiate PBMC into monocyte-derived macrophages, 2×10^6 PBMC/mL were plated in RPMI-1640 media supplemented with 10% FBS, 1% penicillin-streptomycin (Corning), and 50 ng/ml human M-CSF (300-25, Peprotech) in tissue-culture treated dishes (Corning). After 24 h, non-adherent cells were removed, and adherent cells were cultivated for 7-8 additional days at 37° C. in 5% CO2 to promote their full differentiation into macrophages. Oxidant detection with DHE. Intracellular concentrations of ROS were measured using dihydroethidium (DHE) as described (9). Cultured BMDMs or human macrophages were incubated in medium containing 5 μM DHE (Invitrogen) for 30 min Cells were plated on 96-well, black μ-clear-bottom microtiter plates (Greiner Bio-One) pre-coated with 25 μg/ml fibrin. For GGT inhibition, BMDMs or human macrophages were pre-incubated with 5 μM acivicin or GGsTop for 1 h, and the cells were plated on fibrin-coated 96-well plates as described above. PBS was used as vehicle control. Cells were then incubated for 24-48 h and fixed with 4% PFA for 10 min. The DHE fluorescence was detected at an excitation/emission wavelength of 518 nm/605 nm using a SpectraMax M5 microplate reader (Molecular Devices) with SoftMax Pro 5.2 software (Phoenix Technologies Ltd.).

T1 sequence (Q60928 380-568): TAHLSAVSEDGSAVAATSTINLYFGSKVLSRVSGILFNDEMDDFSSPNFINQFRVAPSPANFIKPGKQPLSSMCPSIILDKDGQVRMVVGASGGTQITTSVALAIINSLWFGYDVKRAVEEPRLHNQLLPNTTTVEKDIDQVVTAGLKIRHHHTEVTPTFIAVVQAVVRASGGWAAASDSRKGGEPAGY
T1 sequence (Q60928 1-379): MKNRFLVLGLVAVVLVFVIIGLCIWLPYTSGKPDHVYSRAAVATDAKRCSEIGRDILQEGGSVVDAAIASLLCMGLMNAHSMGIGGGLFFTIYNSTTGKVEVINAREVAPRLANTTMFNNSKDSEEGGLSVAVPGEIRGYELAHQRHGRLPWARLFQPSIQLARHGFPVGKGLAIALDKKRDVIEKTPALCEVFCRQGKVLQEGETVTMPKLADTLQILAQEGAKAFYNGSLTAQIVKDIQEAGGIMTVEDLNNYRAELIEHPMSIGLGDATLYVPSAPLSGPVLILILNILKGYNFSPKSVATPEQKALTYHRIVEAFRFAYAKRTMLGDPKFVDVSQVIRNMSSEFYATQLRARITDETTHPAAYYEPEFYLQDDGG

Turning to `COP(=O)(CCC(N)C(=O)O)Oc1cccc(CC(=O)O)c1` (stereo not shown) [GGsTop], the neurologic signs entry in test [1] is listed as “reduced”. Also, in test [2], the oxidative stress markers entry is recorded as “reduced” and the renal reperfusion injury entry was “protected”. The “fibrin-induced degradation of glutathione (RealThiol F405/F488)” value in test [3] is reported as “inhibited”. In addition, the “ROS generation (DHE) in mouse macrophages” value in test [4] was “inhibited”. In addition, the “fibrin-induced GGT activity in BMDMs” value in test [5] is on record as “inhibited”. Moreover, in test [6], the “ROS generation (DHE) in human macrophages” value was “inhibited”.

The values are drawn from patent US20210330611A1, “THERAPY FOR NEUROLOGICAL DISEASES/DISORDERS” (priority 2020, published 2021).
